Consider three molecules from article PMC8270334, “Design, Sustainable Synthesis and Biological Evaluation of a Novel Dual α2A/5-HT7 Receptor Antagonist with Antidepressant-Like Properties” (Molecules, 2021).

Some results are limits rather than exact numbers.

In experiment [1] the target is T1, human D2L receptor (Homo sapiens, UniProt P14416).
T1 construct: expressed in transfected cells; host or cells: HEK293
Briefly: radioligand binding, [3H]-raclopride displacement at D2LR in HEK293 cells. To be noted: HEK-293 cells, ± SEM; read-out: Ki [nM] D2. The protocol:
(§1) All experiments were performed using HEK293 cells stably expressing human 5-HT1A, 5-HT6, 5-HT7b, and D2L receptors or CHO-K1 cells with a plasmid containing the human 5-HT2A receptor coding sequence (PerkinElmer, Waltham, MA, USA), according to previously reported procedures. Cells were cultured in 150 cm^2 flasks and, after reaching a 90% confluence, were washed with PBS and the centrifugated (200 g) in PBS containing 0.1 mM EDTA and 1 mM dithiothreitol. Cell pellets were subsequently homogenized (in Ultra Turrax tissue homogenizer) and centrifugated twice (35,000× g for 15 min at 4 °C), with 15 min incubation at 37 °C between the centrifugations. All assays were incubated in dedicated buffers and in a total volume of 200 µL in 96-well microtitre plates for 1 h at 37 °C, except for 5-HT1AR and 5-HT2AR that was incubated for 1 h at room temperature. The process of equilibration is terminated by rapid filtration through Unifilter-96 (PerkinElmer) plates with a 96-well cell harvester and radioactivity retained on the filters was quantified on a Microbeta plate reader (PerkinElmer, USA). For displacement studies, the following assay samples containing the proper radioligand were used: 2.5 nM [^3H]-8-OH-DPAT (PerkinElmer, #NET929001MC) for 5-HT1AR; 1 nM [^3H]-ketanserin (PerkinElmer, #NET791250UC) for 5-HT2AR; 2 nM [^3H]-LSD (PerkinElmer, #NET638250UC) for 5-HT6R; and 0.8 nM [^3H]-5-CT (PerkinElmer, #NET1188U100UC) for 5-HT7R or 2.5 nM [^3H]-raclopride (PerkinElmer, #NET975001MC) for D2LR. Non-specific binding was determined using 10 μM 5-HT for 5-HT1AR and 5-HT7R, 20 μM mianserin for 5-HT2AR, 10 μM methiothepine for 5-HT6R, and 10 μM haloperidol for D2LR. […] Results were expressed as means of at least three separate experiments.

Experiment [2] has as its target T2, human 5-HT6 receptor (Homo sapiens, UniProt P50406).
T2 construct: expressed in transfected cells; host or cells: HEK293
Briefly: radioligand binding, [3H]-LSD displacement at 5-HT6R in HEK293 cells. To be noted: HEK-293 cells, ± SEM. As for the experimental part:
as §1

Experiment [3] has as its target T3, human 5-HT7b receptor (Homo sapiens, UniProt P34969).
T3 construct: expressed in transfected cells; host or cells: HEK293
Briefly: radioligand binding, [3H]-5-CT displacement at 5-HT7R in HEK293 cells. To be noted: read-out: Ki [nM] ± SEM 5-HT7. As for the experimental part: as §1

For experiment [4], the target named is T4, 5-HT1AR (Homo sapiens, UniProt P08908).
T4 construct: Eurofins Scientific, France
T4 sequence (P08908 1-422): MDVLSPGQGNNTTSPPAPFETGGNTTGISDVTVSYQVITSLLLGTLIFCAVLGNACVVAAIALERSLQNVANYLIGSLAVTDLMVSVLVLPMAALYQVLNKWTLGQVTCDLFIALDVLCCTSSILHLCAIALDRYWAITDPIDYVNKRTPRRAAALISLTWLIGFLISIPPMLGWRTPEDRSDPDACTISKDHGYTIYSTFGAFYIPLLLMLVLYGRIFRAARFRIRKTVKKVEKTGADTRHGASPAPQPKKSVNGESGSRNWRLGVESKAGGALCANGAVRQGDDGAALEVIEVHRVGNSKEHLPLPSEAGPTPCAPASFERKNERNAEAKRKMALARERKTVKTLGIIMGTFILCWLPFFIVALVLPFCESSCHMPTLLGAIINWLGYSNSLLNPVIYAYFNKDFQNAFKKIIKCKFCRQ
Briefly: functional profiling at 5-HT1AR, cAMP-based assays (Eurofins). The format is cell-based. To be noted: cAMP-based assay; for 5-HT1AR antagonist property: at 1 µM; for EC50: read-out: 5-HT1AR agonist activity EC50.

Experiment [5] concerns the target T5, α2B-adrenergic receptor (Homo sapiens, UniProt P18089).
T5 sequence (P18089 1-450): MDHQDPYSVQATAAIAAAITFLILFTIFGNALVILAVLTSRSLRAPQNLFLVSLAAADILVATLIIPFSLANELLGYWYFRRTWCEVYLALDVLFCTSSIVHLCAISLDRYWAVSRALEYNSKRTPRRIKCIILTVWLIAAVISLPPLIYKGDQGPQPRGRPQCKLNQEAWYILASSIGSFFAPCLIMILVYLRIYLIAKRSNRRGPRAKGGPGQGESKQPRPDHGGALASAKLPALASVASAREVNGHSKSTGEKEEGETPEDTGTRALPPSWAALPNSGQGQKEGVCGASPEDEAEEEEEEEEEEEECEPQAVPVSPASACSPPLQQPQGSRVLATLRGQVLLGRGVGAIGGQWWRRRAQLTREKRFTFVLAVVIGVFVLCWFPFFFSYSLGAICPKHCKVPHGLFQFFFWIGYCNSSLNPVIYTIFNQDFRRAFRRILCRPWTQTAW
Put plainly: intrinsic activity (antagonist) assay, α2B AequoScreen cell line, aequorin calcium mobilization. The format is cell-based. To be noted: AequoScreen cells, ± SEM, two independent experiments. The protocol: The intrinsic activity assays for the α2B-adrenergic receptor were assessed by luminescence detection of calcium mobilization using the recombinant expressed jellyfish photoprotein, aequorin. Measurements were performed with adrenergic α2B AequoScreen cell line (PekinElmer). The cell density in 96-well format measurements was 5000 cells per well. Cell harvesting, coelenterazine h (Invitrogen, cat. no. C 6780) loading and preparation were done according to instructions presented in the AequoScreen Starter Kit Manual (PerkinElmer). Compound concentration series (50 μL/well) were diluted in 0.1% BSA (Intergen) containing assay buffer (D-MEM/F-12, Invitrogen cat. no. 11039) and prepared in white ½ Area Plate–96 well microplates (PerkinElmer,). The cell suspension was dispensed on the ligands using the POLARstar optima reader injectors. For the antagonist assay, cells were injected (50 μL) into the assay plate with antagonists (50 μL) using the POLARstar optima reader. The antagonist dilution series with four replicates were prepared as instructed in the AequoScreen Starter Kit Manual at the concentrations from 10^–11 to 10^–6 M/L. The agonist used for […] was Oxymetazoline (Sigma, cat. no. O2378), which at a single concentration was injected (50 μL, final concentration EC80) on the preincubated (15–20 min) mixture of cells and antagonist, and the emitted light was recorded for 20 s.

T1 sequence (P14416 whole entry): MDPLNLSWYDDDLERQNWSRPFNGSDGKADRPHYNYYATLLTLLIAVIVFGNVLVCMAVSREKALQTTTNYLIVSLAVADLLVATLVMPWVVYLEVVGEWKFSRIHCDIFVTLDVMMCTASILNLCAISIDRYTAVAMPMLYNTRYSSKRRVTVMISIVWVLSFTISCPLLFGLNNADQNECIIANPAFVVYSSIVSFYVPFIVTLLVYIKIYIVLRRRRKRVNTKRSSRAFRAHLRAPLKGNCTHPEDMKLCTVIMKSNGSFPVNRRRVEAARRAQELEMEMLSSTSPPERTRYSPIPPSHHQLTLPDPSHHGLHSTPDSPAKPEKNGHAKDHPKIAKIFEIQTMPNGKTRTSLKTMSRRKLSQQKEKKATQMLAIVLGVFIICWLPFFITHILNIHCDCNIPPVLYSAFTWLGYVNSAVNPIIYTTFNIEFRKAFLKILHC
T2 sequence (P50406 whole entry): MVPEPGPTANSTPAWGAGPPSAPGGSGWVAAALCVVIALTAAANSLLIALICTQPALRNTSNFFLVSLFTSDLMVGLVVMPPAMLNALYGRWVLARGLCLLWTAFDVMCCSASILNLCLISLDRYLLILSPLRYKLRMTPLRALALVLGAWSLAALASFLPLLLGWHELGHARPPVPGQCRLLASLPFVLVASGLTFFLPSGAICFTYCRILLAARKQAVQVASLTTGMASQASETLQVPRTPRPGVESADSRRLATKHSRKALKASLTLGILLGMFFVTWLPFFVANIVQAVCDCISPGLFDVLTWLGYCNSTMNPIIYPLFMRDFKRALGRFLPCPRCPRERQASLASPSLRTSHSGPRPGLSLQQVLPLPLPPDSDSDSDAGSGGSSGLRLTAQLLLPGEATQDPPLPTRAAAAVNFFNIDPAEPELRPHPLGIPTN
T3 sequence (P34969 1-432): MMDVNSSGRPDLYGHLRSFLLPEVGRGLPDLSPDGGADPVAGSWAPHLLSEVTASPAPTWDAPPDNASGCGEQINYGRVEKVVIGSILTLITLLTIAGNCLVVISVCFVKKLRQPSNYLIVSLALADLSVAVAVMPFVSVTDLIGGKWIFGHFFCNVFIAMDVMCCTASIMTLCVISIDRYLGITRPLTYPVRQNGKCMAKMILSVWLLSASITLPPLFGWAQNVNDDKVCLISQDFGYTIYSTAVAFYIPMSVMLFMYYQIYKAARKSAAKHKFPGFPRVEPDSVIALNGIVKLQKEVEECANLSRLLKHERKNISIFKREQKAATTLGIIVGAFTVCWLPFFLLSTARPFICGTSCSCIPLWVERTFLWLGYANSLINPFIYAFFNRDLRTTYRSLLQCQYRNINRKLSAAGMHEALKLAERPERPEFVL

Turning to `CC1(C)Cc2cccc(OCCN3CCC(NS(=O)(=O)c4ccc(F)cc4)CC3)c2O1` [Compound 6, 4-Fluoro-N-{1-[2-(2,2-dimethyl-2,3-dihydrobenzofuran-7-yloxy)ethyl]piperidin-4-yl} benzenesulfonamide], the results for the inhibition constant (Ki) in experiment [1], in experiment [2] and in experiment [3] were 327 ± 29 nM, 839 ± 70 nM and 35 ± 22 nM, respectively. In addition, in experiment [4], the 5-HT1AR antagonist property entry is “no antagonist property”. The EC50 in experiment [4] was greater than 4000 nM. Further, the Kb in experiment [5] was found to be 103 ± 25 nM.
For the molecule `CC1(C)Cc2cccc(OCCN3CCC(NS(=O)(=O)c4cc(Cl)ccc4F)CC3)c2O1` [Compound 8, 5-Chloro-2-fluoro-N-{1-[2-(2,2-dimethyl-2,3-dihydrobenzofuran-7-yloxy)ethyl]piperidin-4-yl}benzenesulfonamide], the inhibition constant Ki in experiment [1] was found to be 388 ± 37 nM; in experiment [2] it was 873 ± 91 nM; in experiment [3] it was 30 ± 11 nM. Moreover, the 5-HT1AR antagonist property result in experiment [4] is “no antagonist property”. The EC50 in experiment [4] was greater than 4000 nM. For the same molecule, the Kb in experiment [5] is 142 ± 31 nM.
Take `CC1(C)Cc2cccc(OCCN3CCC(NS(=O)(=O)c4cncc5ccccc45)CC3)c2O1` [Compound 13, 4-Isoquinoline-N-{1-[2-(2,2-dimethyl-2,3-dihydrobenzofuran-7-yloxy)ethyl]piperidin-4-yl}sulfonamide]: the Ki came to 326 ± 25 nM in experiment [1], 1120 ± 114 nM in experiment [2] and 91 ± 25 nM in experiment [3]. Further, the 5-HT1AR antagonist property entry in experiment [4] was “no antagonist property”. In experiment [4], the EC50 is greater than 4000 nM. Moreover, the Kb in experiment [5] was found to be 27 ± 13 nM.
